# Test results from patent US20110217740A1, “METHODS, MICROORGANISMS, AND COMPOSITIONS FOR PLANT BIOMASS PROCESSING” (University of Georgia Research, priority 2008, published 2011).
# Test system: A. thermophilum
# Assay: Sensitivity of A. thermophilum to selective agents
# Type: cell-based, Anaerocellum thermophilum
# Details: selective agent in growth medium
# Method: 5× Base Salts: 140.00 g/L NaCl, 17.50 g/L, MgSO4.7H2O, 13.50 g/L MgCl2.6H2O, 1.65 g/L KCl, 1.25 g/L NH4Cl, 0.70 g/L CaCl2.2H2O. Liquid complex cellobiose (CC) media (pH 6.8): 200 mL/L 5× Base salts, 1 mL/L 1000× Trace minerals, 100 μL/L 100 mM Na2WO4*2H2O, 50 μL/L Resazurin (5 mg/mL), 5 mL/L 10% w/v Yeast Extract, 50 mL/L 10% w/v Casein hydrolysate, 35 mL/L 10% w/v Cellobiose, 0.5 g/L Cysteine, 0.5g Na2S, 1 g/L NaHCO3, 1 mL/L 1M K2HPO4 buffer. Solid complex cellobiose (CC) media: 1× media +1% phytagel solution (Sigma Chemical Company, St. Louis, Mo.). CC plates containing 5-fluoroorotic acid (5-FOA): to ensure complete 5-FOA solvation, 1M NaOH is dripped into the solution until a murky consistency is reached at around pH 10, cysteine is then used to lower the pH to 7, where the solution turns transparent. Simvastatin plates: solid complex cellobiose plates with the indicated amount of simvastatin added. A. thermophilum is sensitive to 8 millimolar (mM) 5-FOA, 30 mM hygromycin, 8 micromolar (μM) simvastatin, and 50 μM apramycin.
row,SMILES,concentration to which A. thermophilum is sensitive [µM]
1,"O=C(O)c1[nH]c(=O)[nH]c(=O)c1F [5-FOA, 5-fluoroorotic acid]",8000
2,CN[C@@H]1[C@@H](O[C@H]2O[C@H](CO)[C@@H](N)[C@H](O)[C@H]2O)OC2C[C@@H](N)[C@@H](O[C@H]3[C@H](O)[C@@H](O)[C@H](N)C[C@@H]3N)OC2[C@@H]1O (stereo partly drawn) [apramycin],50
3,CCC(C)(C)C(=O)O[C@H]1C[C@@H](C)C=C2C=C[C@H](C)[C@H](CC[C@@H]3C[C@@H](O)CC(=O)O3)[C@H]21 [simvastatin],8
